Settings: Liquid, Vibrating tube method

CC(C)OC(C)C [diisopropyl ether]
Settings | mass density [kg/m3]
283.15 K, 100 kPa | 733.83
283.15 K, 5000 kPa | 739.6
283.15 K, 10000 kPa | 744.9
283.15 K, 15000 kPa | 749.85
283.15 K, 20000 kPa | 754.49
283.15 K, 25000 kPa | 758.89
283.15 K, 30000 kPa | 763.08
283.15 K, 35000 kPa | 767.08
283.15 K, 40000 kPa | 770.91
283.15 K, 45000 kPa | 774.59
283.15 K, 50000 kPa | 778.13
283.15 K, 55000 kPa | 781.56
283.15 K, 60000 kPa | 784.88
283.15 K, 65000 kPa | 788.07
288.15 K, 100 kPa | 728.69
288.15 K, 5000 kPa | 734.61
288.15 K, 10000 kPa | 740.14
288.15 K, 15000 kPa | 745.3
288.15 K, 20000 kPa | 750.09
288.15 K, 25000 kPa | 754.61
288.15 K, 30000 kPa | 758.9
288.15 K, 35000 kPa | 763.01
288.15 K, 40000 kPa | 766.92
288.15 K, 45000 kPa | 770.68
288.15 K, 50000 kPa | 774.31
288.15 K, 55000 kPa | 777.77
288.15 K, 60000 kPa | 781.16
288.15 K, 65000 kPa | 784.42
293.15 K, 100 kPa | 723.51
293.15 K, 5000 kPa | 729.62
293.15 K, 10000 kPa | 735.37
293.15 K, 15000 kPa | 740.69
293.15 K, 20000 kPa | 745.62
293.15 K, 25000 kPa | 750.29
293.15 K, 30000 kPa | 754.71
293.15 K, 35000 kPa | 758.91
293.15 K, 40000 kPa | 762.93
293.15 K, 45000 kPa | 766.78
293.15 K, 50000 kPa | 770.48
293.15 K, 55000 kPa | 774.06
293.15 K, 60000 kPa | 777.49
293.15 K, 65000 kPa | 780.83
298.15 K, 100 kPa | 718.29
298.15 K, 5000 kPa | 724.67
298.15 K, 10000 kPa | 730.59
298.15 K, 15000 kPa | 736.05
298.15 K, 20000 kPa | 741.13
298.15 K, 25000 kPa | 745.92
298.15 K, 30000 kPa | 750.46
298.15 K, 35000 kPa | 754.77
298.15 K, 40000 kPa | 758.89
298.15 K, 45000 kPa | 762.82
298.15 K, 50000 kPa | 766.6
298.15 K, 55000 kPa | 770.25
298.15 K, 60000 kPa | 773.75
298.15 K, 65000 kPa | 777.14
303.15 K, 100 kPa | 713.03
303.15 K, 5000 kPa | 719.61
303.15 K, 10000 kPa | 725.79
303.15 K, 15000 kPa | 731.48
303.15 K, 20000 kPa | 736.81
303.15 K, 25000 kPa | 741.76
303.15 K, 30000 kPa | 746.43
303.15 K, 35000 kPa | 750.85
303.15 K, 40000 kPa | 755.09
303.15 K, 45000 kPa | 759.12
303.15 K, 50000 kPa | 763
303.15 K, 55000 kPa | 766.7
303.15 K, 60000 kPa | 770.24
303.15 K, 65000 kPa | 773.7
308.15 K, 100 kPa | 707.73
308.15 K, 5000 kPa | 714.61
308.15 K, 10000 kPa | 720.99
308.15 K, 15000 kPa | 726.79
308.15 K, 20000 kPa | 732.2
308.15 K, 25000 kPa | 737.29
308.15 K, 30000 kPa | 742.07
308.15 K, 35000 kPa | 746.63
308.15 K, 40000 kPa | 750.94
308.15 K, 45000 kPa | 755.05
308.15 K, 50000 kPa | 759.01
308.15 K, 55000 kPa | 762.79
308.15 K, 60000 kPa | 766.45
308.15 K, 65000 kPa | 769.97
313.15 K, 100 kPa | 702.38
313.15 K, 5000 kPa | 709.64
313.15 K, 10000 kPa | 716.16
313.15 K, 15000 kPa | 722.17
313.15 K, 20000 kPa | 727.77
313.15 K, 25000 kPa | 732.97
313.15 K, 30000 kPa | 737.92
313.15 K, 35000 kPa | 742.55
313.15 K, 40000 kPa | 746.98
313.15 K, 45000 kPa | 751.2
313.15 K, 50000 kPa | 755.21
313.15 K, 55000 kPa | 759.09
313.15 K, 60000 kPa | 762.83
313.15 K, 65000 kPa | 766.39
318.15 K, 100 kPa | 697.07
318.15 K, 5000 kPa | 704.53
318.15 K, 10000 kPa | 711.3
318.15 K, 15000 kPa | 717.51
318.15 K, 20000 kPa | 723.27
318.15 K, 25000 kPa | 728.67
318.15 K, 30000 kPa | 733.74
318.15 K, 35000 kPa | 738.49
318.15 K, 40000 kPa | 743.01
318.15 K, 45000 kPa | 747.34
318.15 K, 50000 kPa | 751.47
318.15 K, 55000 kPa | 755.41
318.15 K, 60000 kPa | 759.21
318.15 K, 65000 kPa | 762.85
323.15 K, 100 kPa | 691.61
323.15 K, 5000 kPa | 699.42
323.15 K, 10000 kPa | 706.46
323.15 K, 15000 kPa | 712.89
323.15 K, 20000 kPa | 718.83
323.15 K, 25000 kPa | 724.38
323.15 K, 30000 kPa | 729.58
323.15 K, 35000 kPa | 734.45
323.15 K, 40000 kPa | 739.08
323.15 K, 45000 kPa | 743.5
323.15 K, 50000 kPa | 747.72
323.15 K, 55000 kPa | 751.72
323.15 K, 60000 kPa | 755.59
323.15 K, 65000 kPa | 759.26
328.15 K, 100 kPa | 686.17
328.15 K, 5000 kPa | 694.18
328.15 K, 10000 kPa | 701.52
328.15 K, 15000 kPa | 708.19
328.15 K, 20000 kPa | 714.34
328.15 K, 25000 kPa | 720.04
328.15 K, 30000 kPa | 725.37
328.15 K, 35000 kPa | 730.4
328.15 K, 40000 kPa | 735.15
328.15 K, 45000 kPa | 739.67
328.15 K, 50000 kPa | 743.94
328.15 K, 55000 kPa | 748.05
328.15 K, 60000 kPa | 751.94
328.15 K, 65000 kPa | 755.64
333.15 K, 100 kPa | 681
333.15 K, 5000 kPa | 688.97
333.15 K, 10000 kPa | 696.58
333.15 K, 15000 kPa | 703.52
333.15 K, 20000 kPa | 709.85
333.15 K, 25000 kPa | 715.73
333.15 K, 30000 kPa | 721.21
333.15 K, 35000 kPa | 726.36
333.15 K, 40000 kPa | 731.23
333.15 K, 45000 kPa | 735.85
333.15 K, 50000 kPa | 740.18
333.15 K, 55000 kPa | 744.38
333.15 K, 60000 kPa | 748.24
333.15 K, 65000 kPa | 752.02
